Measured values taken from ChEMBL document CHEMBL2346568, “Discovery and structure-activity relationship of thienopyridine derivatives as bone anabolic agents” (Bioorg Med Chem, 2013).
Calls of active or inactive are those of the source. The calls are words filed in the database; no cut-off is given here.

What was measured:
[1] = Induction of osteoblastic differentiation in mouse ST2 cells assessed as increase in alkaline phosphatase activity after 4 days by lowry method; type: functional
in vitro = conditions: rat, liver microsomes
[2] = Induction of osteoblastic differentiation in mouse ST2 cells assessed as increase in alkaline phosphatase activity at 0.30 ug/ml after 4 days by lowry method; type: functional
Rattus norvegicus [3] = assay: Bone anabolic effect in ovariectomized F344 rat postmenopausal osteoporosis model assessed as increase in serum osteocalcin level at 60 mg/kg, po bid for 6 weeks by ELISA; type: functional, organism-based; parameters: dose 60 mg/kg
Rattus norvegicus [4] = assay: Bone anabolic effect in ovariectomized F344 rat postmenopausal osteoporosis model assessed as increase in areal bone mineral density of proximal tibiae at 60 mg/kg, po bid for 6 weeks by dual energy X-ray absorptiometry; type: functional, organism-based; parameters: dose 60 mg/kg
Rattus norvegicus [5] = assay: Bone anabolic effect in ovariectomized F344 rat postmenopausal osteoporosis model assessed as increase in areal bone mineral density of femoral diaphyses at 60 mg/kg, po bid for 6 weeks by dual energy X-ray absorptiometry; type: functional, organism-based; parameters: dose 60 mg/kg
[6] = Oral bioavailability in F344 rat at 25 mg/kg; type: ADME, organism-based; conditions: in vivo
Rattus norvegicus [7] = assay: Bone anabolic effect in ovariectomized F344 rat postmenopausal osteoporosis model assessed as increase in areal bone mineral density of distal femur at 60 mg/kg, po bid for 6 weeks by dual energy X-ray absorptiometry; type: functional, organism-based; parameters: dose 60 mg/kg
[8] = AUC in F344 rat at 25 mg/kg, po; type: ADME, organism-based; parameters: dose 25 mg/kg, route oral; conditions: plasma
[9] = AUC in F344 rat at 2 mg/kg, iv; type: ADME, organism-based; parameters: dose 2 mg/kg, route intravenous; conditions: plasma
[10] = Cmax in F344 rat at 25 mg/kg, po; type: ADME, organism-based; parameters: dose 25 mg/kg, route oral; conditions: in vivo
[11] = Volume of distribution in F344 rat at 2 mg/kg, iv; type: ADME, organism-based; parameters: dose 2 mg/kg, route intravenous; conditions: in vivo
Rattus norvegicus [12] = assay: Volume of distribution in F344 rat at 25 mg/kg, po; type: ADME, organism-based; parameters: dose 25 mg/kg, route oral; conditions: in vivo
Rattus norvegicus [13] = assay: Bone anabolic effect in ovariectomized F344 rat postmenopausal osteoporosis model assessed as increase in serum osteocalcin level at 10 to 30 mg/kg, po qd for 6 weeks by ELISA; type: functional, organism-based
Rattus norvegicus [14] = assay: Bone anabolic effect in ovariectomized F344 rat postmenopausal osteoporosis model assessed as increase in areal bone mineral density of proximal tibiae at 10 to 30 mg/kg, po qd for 6 weeks by dual energy X-ray absorptiometry; type: functional, organism-based
Rattus norvegicus [15] = assay: Bone anabolic effect in ovariectomized F344 rat postmenopausal osteoporosis model assessed as increase in areal bone mineral density of femoral diaphyses at 10 to 30 mg/kg, po qd for 6 weeks by dual energy X-ray absorptiometry; type: functional, organism-based
Rattus norvegicus [16] = assay: Bone anabolic effect in ovariectomized F344 rat postmenopausal osteoporosis model assessed as increase in areal bone mineral density of distal femur at 10 to 30 mg/kg, po qd for 6 weeks by dual energy X-ray absorptiometry; type: functional, organism-based
[17] = Half life in F344 rat at 25 mg/kg, po; conditions: in vivo
[18] = Half life in F344 rat at 2 mg/kg, iv; conditions: in vivo
[19] = Clearance in F344 rat at 2 mg/kg, iv; conditions: in vivo
[20] = Clearance in F344 rat at 25 mg/kg, po; conditions: in vivo

Q: For `NC(=O)c1sc2nccc(N3CCN(c4ccccc4)CC3)c2c1N`, which EC200 [1] is on record?
A: Its EC200 is 0.1 µg/mL.

Q: What about the remaining at 0.5 h (in vitro) of the same molecule?
A: The remaining at 0.5 h was 91%.

Q: For `CCCNc1ccnc2sc(C(N)=O)c(N)c12`, which Activity [2] is on record?
A: Its Activity is 134%.

Q: Which EC200 [1] does the source give for `NC(=O)c1sc2nccc(N3CCCN(c4ccc(C(=O)O)cc4)CC3)c2c1N` here?
A: The EC200 was over 1 µg/mL.

Q: Which EC200 [1] does the source give for `CC(C)Oc1ccc(N2CCCN(c3ccnc4sc(C(N)=O)c(N)c34)CC2)cc1` here?
A: The EC200 was over 1 µg/mL.

Q: For `N#Cc1ccc(N2CCCN(c3ccnc4sc(C(N)=O)c(N)c34)CC2)cc1`, which EC200 [1] is on record?
A: The EC200 was 0.099 µg/mL.

Q: What does the source list for `CN(C)c1ccnc2sc(C(N)=O)c(N)c12`?
A: Activity (Rattus norvegicus [3]): Active; Activity (Rattus norvegicus [4]): Active; Activity (Rattus norvegicus [5]): Active; bioavailability [6]: 87%; Activity (Rattus norvegicus [7]): Active; AUC [8]: 9400 ng·h/mL; AUC [9]: 870 ng·h/mL; Cmax [10]: 5590 ng/mL; Vd [11]: 1.1 L/kg; Vd (Rattus norvegicus [12]): 3.1 L/kg; EC200 [1]: 0.17 µg/mL

Q: Which Activity [2] does the source give for `CN1CCN(c2ccnc3sc(C(N)=O)c(N)c23)CC1` here?
A: The Activity was 117%.

Q: Which EC200 [1] does the source give for `Cc1ccccc1N1CCCN(c2ccnc3sc(C(N)=O)c(N)c23)CC1` here?
A: Its EC200 is over 1 µg/mL.

Q: With `NC(=O)c1sc2nccc(N3CCNCC3)c2c1N` as the molecule, how does the Activity [2] read?
A: Its Activity is 105%.

Q: Which results are given for `NC(=O)c1sc2nccc(N3CCCN(c4ccccc4)CC3)c2c1N`?
A: Activity (Rattus norvegicus [13]): Active; Activity (Rattus norvegicus [14]): Active; Activity (Rattus norvegicus [15]): Active; Activity (Rattus norvegicus [16]): Active; bioavailability [6]: 71%; AUC [8]: 9500 ng·h/mL; AUC [9]: 1100 ng·h/mL; half-life [17]: 3.22 h; Cmax [10]: 2540 ng/mL; half-life [18]: 2.77 h; Vd [11]: 4.2 L/kg; Vd (Rattus norvegicus [12]): 8.1 L/kg; clearance [19]: 29 mL/min/kg; CL/F [20]: 34 mL/min/kg; EC200 [1]: 0.051 µg/mL; remaining at 0.5 h (in vitro): 71%

Q: For `NC(=O)c1sc2nccc(N3CCCC3)c2c1N`, which EC200 [1] is on record?
A: The EC200 was 0.29 µg/mL.

Q: Which EC200 [1] does the source give for `NC(=O)c1sc2nccc(N3CCCN(c4nccs4)CC3)c2c1N` here?
A: Its EC200 is 0.036 µg/mL.

Q: For `NC(=O)c1sc2nccc(N3CCCN(c4ccncc4)CC3)c2c1N`, which EC200 [1] is on record?
A: The EC200 was 0.091 µg/mL.

Q: Which EC200 [1] does the source give for `Cc1ccc(N2CCCN(c3ccnc4sc(C(N)=O)c(N)c34)CC2)cc1` here?
A: The EC200 was 0.044 µg/mL.

Q: Which EC200 [1] does the source give for `NC(=O)c1sc2nccc(N3CCCN(c4ccccn4)CC3)c2c1N` here?
A: The EC200 was 0.059 µg/mL.

Q: For `CCCN(CCC)c1ccnc2sc(C(N)=O)c(N)c12`, which Activity [2] is on record?
A: Its Activity is 110%.

Q: With `Cc1cccc(N2CCCN(c3ccnc4sc(C(N)=O)c(N)c34)CC2)c1` as the molecule, how does the EC200 [1] read?
A: The EC200 was 0.074 µg/mL.

Q: Which EC200 [1] does the source give for `NC(=O)c1sc2nccc(N3CCCN(c4ccc(F)cc4)CC3)c2c1N` here?
A: The EC200 was 0.082 µg/mL.

Q: Which results are given for `NC(=O)c1sc2nccc(N3CCCCC3)c2c1N`?
A: EC200 [1]: 0.067 µg/mL; remaining at 0.5 h (in vitro): 2%

Q: For `COc1ccc(N2CCCN(c3ccnc4sc(C(N)=O)c(N)c34)CC2)cc1`, which EC200 [1] is on record?
A: Its EC200 is 0.035 µg/mL.

Q: Which EC200 [1] does the source give for `NC(=O)c1ccc(N2CCCN(c3ccnc4sc(C(N)=O)c(N)c34)CC2)cc1` here?
A: Its EC200 is 0.079 µg/mL.

Q: For `CCOC(=O)c1ccc(N2CCCN(c3ccnc4sc(C(N)=O)c(N)c34)CC2)cc1`, which EC200 [1] is on record?
A: Its EC200 is 0.193 µg/mL.

Q: Which EC200 [1] does the source give for `NC(=O)c1sc2nccc(NC3CCCCC3)c2c1N` here?
A: The EC200 was 0.24 µg/mL.

Q: Which EC200 [1] does the source give for `CNC(=O)c1ccc(N2CCCN(c3ccnc4sc(C(N)=O)c(N)c34)CC2)cc1` here?
A: Its EC200 is 0.023 µg/mL.

Q: Which results are given for `NC(=O)c1sc2nccc(N3CCOCC3)c2c1N`?
A: EC200 [1]: 0.44 µg/mL; remaining at 0.5 h (in vitro): 82%

Q: Which EC200 [1] does the source give for `CN(C)C(=O)Cc1ccc(N2CCCN(c3ccnc4sc(C(N)=O)c(N)c34)CC2)cc1` here?
A: The EC200 was 0.003 µg/mL.

Q: With `CC(C)(C)c1ccc(N2CCCN(c3ccnc4sc(C(N)=O)c(N)c34)CC2)cc1` as the molecule, how does the EC200 [1] read?
A: The EC200 was 0.27 µg/mL.

Q: Which EC200 [1] does the source give for `CN(C)C(=O)c1ccc(N2CCCN(c3ccnc4sc(C(N)=O)c(N)c34)CC2)cc1` here?
A: Its EC200 is 0.014 µg/mL.
